Experiment [1] relates to BRS3 receptors in nonplacental vertebrates. Put plainly: Intracellular calcium assay, nonplacental pooled. The format is cell-based, koala, platypus, chicken, turtle, frog, and spotted gar. Particulars: cBRS3, tBRS3, sBRS3; inhibitor 25 μM 1 h, then GRP or NMB 10 nM; HEK293. The method, then:
Intracellular calcium was measured using the non-wash calcium assay Fluo8 kit (ab112129, Abcam) according to the manufacturer’s instructions. Briefly, HEK293 cells were seeded in 24-well plates and were transfected with GRPR, NMBR, BRS3, or the empty vector plasmid pcDNA3.1-V5-His (300 ng) and incubated overnight at 37°C with 5% CO2. The next day, the cells were replated into a 96-well assay plate (black plate and clear bottom). After 12 h, growth media were aspirated, and calcium dye was added. […] The basal fluorescence intensity was recorded 15 times at 1 Hz for […]. The results were normalized to the average basal fluorescence intensity in ratio, and the peak response was used for the result calculation. Calcium fold was calculated using no stimulation data as standard value.

The test system is the same in experiment [2]. Description: ERK1/2 phosphorylation, nonplacental pooled. The format is cell-based, koala, platypus, chicken, turtle, frog, and spotted gar. Particulars: cBRS3, tBRS3, sBRS3; inhibitor 25 μM 1 h, then GRP or NMB 1 μM 5 min; HEK293. The method, then:
For ERK1/2 phosphorylation, HEK293 cells were seeded in 24-well plates and transfected with GRPR, NMBR, BRS3, mutants of different species’ BRS3, or an empty vector plasmid, pcDNA3.1-V5-His plasmid (300 ng). […] Each sample with an equal amount of protein was mixed with 6×SDS sample buffer, boiled for 5 min, and separated on 10% SDS-polyacrylamide gel electrophoresis (PAGE) before transferring the proteins onto a PVDF membrane. The membranes were then blocked at room temperature for 1 h with 5% milk powder in Tris-buffered saline-Tween (TBST), followed by subsequent incubation at 4°C overnight in TBST containing the different primary antibodies (1:1,000 dilution). After washing three times (10 min each time) with TBST, the membranes were incubated for 1 h in TBST containing the secondary antibodies (1:2,000 dilution), followed by washing three times (10 min each time) with TBST, prior to detection by chemiluminescence.

Experiment [3] relates to BRS3 of placental mammals (hBRS3, mBRS3, and aBRS3). Put plainly: Luciferase reporter, constitutive Gq activity with inhibitor, pooled. In kind it is cell-based, human, mouse, aardvark. To be noted: inhibitor 25 μM, 12 h, HEK293. The method, then:
(§1) To detect constitutive activity of BRS3, HEK293 cells were seeded in 24-well plates and cotransfected with the CRE/NFAT-RE/SRF-RE/SRE luciferase reporter plasmids (50 ng), the BRS3 from different species, or BRS3 mutants with different doses (10 ng/50 ng/150 ng); after 24 h, cells were further incubated in serum-free media for another 12 h before luciferase assay. As for peptide supplementation treatment, HEK293 cells were cotransfected with the CRE/NFAT-RE/SRF-RE/SRE luciferase reporter plasmids (50 ng) and various genes (300 ng) of the bombesin receptor family. […] Luciferase activities were determined using luciferase assay kits (Beyotime, Shanghai, China) and normalized to β-galactosidase activity. All experiments were performed at least three times in triplicates. HEK293 cells transfected with pcDNA were used as a blank control in all luciferase experiments, and the fold was calculated compared to blank control.

For a further experiment, the system named is human BRS3 (hBRS3). Put plainly: Luciferase reporter, constitutive activity (WT, mutants, truncated; with/without inhibitor). The format is cell-based. Particulars: 25 μM inhibitor 12 h, HEK293, vs blank. Here is the method: as §1
Another experiment concerns mouse BRS3 (mBRS3). Described as above. To be noted: 25 μM inhibitor 12 h, HEK293, vs blank. The format is cell-based. The method, then:
as §1

For a further experiment, the system named is aardvark BRS3 (aBRS3). The description is as above. The format is cell-based, Orycteropus afer. Particulars: 25 μM inhibitor 12 h, HEK293, vs blank. Here is the method:
as §1

The test system of experiment [4] is N-hBRS3 (human BRS3 with truncated N terminus). Description: Luciferase reporter, N-terminal peptide stimulated, truncated receptor. The format is cell-based. To be noted: 1,000 nM peptide 12 h, HEK293. The method, then: as §1
The subject of experiment [5] is N-mBRS3 (mouse BRS3 with truncated N terminus). The description is as above. In kind it is cell-based. To be noted: 1,000 nM peptide 12 h, HEK293. Here is the method:
as §1

For experiment [6], the system named is N-aBRS3 (aardvark BRS3 with truncated N terminus). The experiment is described as above. To be noted: 1,000 nM peptide 12 h, HEK293. The format is cell-based, Orycteropus afer. Here is the method:
as §1

For the next experiment, the system named is N-cBRS3 (chicken). The description is as above. The format is cell-based, Gallus gallus. Particulars: 1,000 nM, 12 h, HEK293. Here is the method: as §1
The next experiment relates to N-sBRS3 (spotted gar). The description is as above. The format is cell-based, Lepisosteus oculatus. To be noted: 1,000 nM, 12 h, HEK293. Here is the method: as §1
The next experiment deals with N-tBRS3 (turtle). The experiment is described as above. Particulars: 1,000 nM, 12 h, HEK293. The format is cell-based, Chrysemys picta. Here is the method:
as §1

The subject of experiment [7] is pcDNA-transfected HEK293 cells. Put plainly: Luciferase reporter, N-terminal peptide stimulated, empty vector. In kind it is cell-based, human. To be noted: 1,000 nM peptide 12 h. The method, then:
as §1

The test system of experiment [8] is N-BRS3 receptors of placental mammals (N-hBRS3, N-mBRS3, and N-aBRS3). Description: Luciferase reporter, N-terminal peptide stimulated, pooled. The format is cell-based, human, mouse, aardvark. To be noted: CRE/NFAT-RE/SRF-RE; 1,000 nM, 12 h, HEK293. The method, then: as §1
A further experiment concerns GPR39. To be noted: cited from earlier work. An excerpt:
Coevolution of GPCR–ligand pairs appears more pronounced in the polypeptide family, and there are approximately 30 orphan GPCRs from the polypeptide family, in which endogenous peptide ligands are predicted to bind to and activate these orphan GPCRs. Since GPCRs from the polypeptide family were considered to be paired with natural polypeptide ligands, many studies aim to identify endogenous peptides to deorphanize these orphan GPCRs in the polypeptide family. According to the evolution of GPCR-peptide pairs, after the 2R event during the origin of vertebrates, most orphan GP ...

These results are taken from paper PMC6422423, “Constitutively active BRS3 is a genuinely orphan GPCR in placental mammals” (PLoS Biology, 2019).

Entries after “also recorded” stand apart in the source; their conditions may differ. *1 amine or outer side, *2 acyl side, *3 side chain or, on linkers, in order; H or OH if unused. Where a SMILES comes first, the peptide text is derived from it. Bridges are numbered along the chain shown (N, C = ends). [ ]: non-standard residue; d: D form. X1 = CC(=O)NC(C(=O)OC(C(C)C)C(N[*:1])C(=O)[*:2])C(O)C(C)C; PhLac = O=C(O)[CH](O)Cc1ccccc1; NMeT = CN[CH](C(=O)O)[CH](C)O; NMeA = CN[CH](C)C(=O)O; NMeDha = C=C(NC)C(=O)O

`CN1CCN(c2nc(C3=C(c4c[nH]c5ccccc45)C(=O)NC3=O)c3ccccc3n2)CC1` [Sotrastaurin]: the “Inhibition of Ca2+ mobilization (in words)” value in experiment [1] is given as “inhibits Ca^2+ ion levels”. In addition, the “Inhibition of ERK phosphorylation (in words)” value in [2] is on record as “inhibits the phosphorylation levels of ERK”. Besides, in experiment [3], the “Inhibition of constitutive Gq signaling (in words)” value was “inhibits the constitutively activated Gq signaling pathway”.
Turning to `C=C1C(=O)NC(C)C(=O)N(C)C(C)C(=O)NC(C(OC(=O)C(NC(C)=O)C(O)C(C)C)C(C)C)C(=O)N(C)C(C(C)OC)C(=O)OC(C)C(NC(C)=O)C(=O)OC(Cc2ccccc2)C(=O)N1C` (stereo not drawn) [YM 254890] (Ac-T[PhLac][NMeDha]A[NMeA][X1][NMeT](Me); ester 1-C; configuration not given here), the “Inhibition of Ca2+ mobilization (in words)” value in [1] is on record as “inhibits Ca^2+ ion levels; also recorded: inhibited”. The “Inhibition of ERK phosphorylation (in words)” value in [2] is “inhibits the phosphorylation levels of ERK; also recorded: inhibited”. The “Luciferase fold (constitutive Gq signaling) with inhibitor” value with human BRS3 (hBRS3) (line 1) was 0.7675 fold; with human BRS3 (hBRS3) (line 2), 0.8993 fold; in the experiment with human BRS3 (hBRS3) (line 3), 0.8334 fold; in the experiment on mouse BRS3 (mBRS3) (line 1), 1.3903 fold; in the experiment on mouse BRS3 (mBRS3) (line 2), 1.6189 fold; in the experiment with mouse BRS3 (mBRS3) (line 3) it was 1.5046 fold. Also, the “Luciferase fold (constitutive Gq signaling) with inhibitor” value in the experiment with aardvark BRS3 (aBRS3) (line 1) came to 1.6524 fold; in the experiment on aardvark BRS3 (aBRS3) (line 2), 1.8796 fold; in the experiment with aardvark BRS3 (aBRS3) (line 3), 1.766 fold. The “Inhibition of constitutive Gq signaling (in words)” value in [3] was “inhibits the constitutively activated Gq signaling pathway”.
Consider “MSQRQSQSPNQTLISITNDTETSSSVVSNDTTHKGWTGDNS-NH2 [N-terminal peptide of mBRS3, synthetic N terminus peptide of mouse BRS3]”, for which the CRE luciferase fold came out at 1.2968 fold in experiment [4] (line 1); 1.4057 fold in experiment [4] (line 2); 1.3512 fold in experiment [4] (line 3); 1.2458 fold in [5] (line 1); 1.0945 fold in [5] (line 2); 1.1702 fold in experiment [5] (line 3). Further, the CRE luciferase fold in [6] (line 1) was 1.4026 fold; in experiment [6] (line 2), 1.3089 fold; in experiment [6] (line 3) it was 1.3558 fold; in [7] (line 1), 0.9705 fold; in experiment [7] (line 2), 1.0972 fold; in experiment [7] (line 3) it was 1.0338 fold. The NFAT luciferase fold in [4] (line 1) was 1.5912 fold; in experiment [4] (line 2), 1.6741 fold; in [4] (line 3), 1.6327 fold; in experiment [5] (line 1), 2.0847 fold; in experiment [5] (line 2), 1.8235 fold; in [5] (line 3) it was 1.9541 fold. For the same compound, the NFAT luciferase fold in experiment [6] (line 1) is 2.2791 fold; in experiment [6] (line 2), 1.9413 fold; in experiment [6] (line 3), 2.1102 fold; in experiment [7] (line 1) it was 0.9071 fold; in [7] (line 2), 1.1044 fold; in experiment [7] (line 3), 1.0057 fold. Also, the SRF luciferase fold in [4] (line 1) is given as 1.6244 fold; in experiment [4] (line 2), 1.7709 fold; in [4] (line 3), 1.6976 fold; in experiment [5] (line 1), 1.4898 fold; in experiment [5] (line 2), 1.6079 fold; in experiment [5] (line 3), 1.5488 fold. The SRF luciferase fold in experiment [6] (line 1) worked out at 1.3458 fold; in [6] (line 2) it was 1.2427 fold; in [6] (line 3), 1.2942 fold; in experiment [7] (line 1), 0.9788 fold; in experiment [7] (line 2) it was 1.0087 fold; in [7] (line 3) it was 0.9937 fold. The “Activation of truncated receptor (in words)” value with N-cBRS3 (chicken), with N-sBRS3 (spotted gar) and with N-tBRS3 (turtle) was “cannot be stimulated” throughout. Further, in experiment [8], the “Activation of truncated receptors (in words)” value was “all CRE/NFAT-RE/SRF-RE signaling pathways could be activated”.
For the compound obestatin, in the experiment with GPR39, the “Activation of GPR39 (in words)” value was “activated” and the “Activation of GPR39, contrary view (in words)” value was “cannot be activated”.
